Test results from patent publication US6492329B1, “Cytokine and hemopoietic factor endogenous production enhancer and methods of use thereof” (Novelos Therapeutics, Inc., priority 1995, dated 2002).

Key:
leukemia L1210 cells = assay: Leukemia L1210 in mice: ascitic fluid and survival (Example 14); conditions: for Accumulation of ascitic (weight gain, %): leukemia L1210
[1] = test system: Erlich adenocarcinoma cells; assay: Erlich adenocarcinoma in mice: ascitic fluid and survival (Example 14); conditions: for Accumulation of ascitic (weight gain, %): Erlich adenocarcinoma
[2] = test system: rat embrional fibroblasts (REF); assay: Number of REF cells throughout 72-hr incubation; format: cell-based
Method: (§1) To this end, these substances had been incubated for 72 hours with cells of rat embrional fibroblasts (REF) and the same cells, transformed with adenoviral E1A gene in complementation with ras-oncogene (e-ras cell line). Subsequent evaluation of the cellularity of experimental samples was carried out by counting the quantity of cell per milliliter (for REF cell line) or clones in dish (for e-ras cell line).
(§2) Cells were cultivated on DMEM medium supplemented with 10% fetal calf serum and […] gentamicin. Cultivation was carried out in Petri dishes.
(§3) REF cells was cultivated with initial density of 800 000 cell per mL, evaluation of the cellularity was performed at 0, 24, 48 and 72 hours of incubation with the test articles.
(§4) For the test-system for estimation of apoptosis regulation UV-induced cell death was triggered in a dose of 4 Dj. Test articles were added immediately after irradiation. Then, the quantity of cell per milliliter (for REF cell line) or clones in dish (for e-ras cell line) were monitored every 24 hours. For determination of DNA-fragmentation the electrophoresis in agarose gel was used at standard settings.

[3] = test system: e-ras cell line (REF transformed with E1A and ras-oncogene); assay: Number of clones of e-ras cells throughout 72-hr incubation; format: cell-based, rat
Method: as §1, §2
(§5) E-ras cells were seeded at a cell density of 300 cells per 5 cm dish. 7 days after growth of e-ras cells had been started the quantity of clones was evaluated and the test articles were added into the dishes.
as §4

[4] = test system: rat embrional fibroblasts (REF) after UV-irradiation; assay: Number of REF cells after UV-irradiation; format: cell-based
Method: as §1, §2, §3, §4

[5] = test system: e-ras cells after UV-irradiation; assay: Number of clones of e-ras cells after UV-irradiation; format: cell-based, rat
Method: as §1, §2, §5, §4

NCCSSCCNC(=O)CNC(=O)C(CSSCC(NC(=O)CCC(N)C(=O)O)C(=O)NCC(=O)O)NC(=O)CCC(N)C(=O)O (stereo not shown) [S-thioethylamine-GSSG + normal saline]
Accumulation of ascitic (weight gain, %) (leukemia L1210 cells; number of injection 0): 0.77 ± 0.2% | Accumulation of ascitic (weight gain, %) (leukemia L1210 cells; number of injection 3): 3.1 ± 0.4% | Accumulation of ascitic (weight gain, %) (leukemia L1210 cells; number of injection 7): 92 ± 1.2% | Mean survival time (leukemia L1210 cells; mice inoculated with leukemia L1210 cells): 19.2 ± 0.8 | Accumulation of ascitic (weight gain, %) ([1]; number of injection 0): 0.8 ± 0.1% | Accumulation of ascitic (weight gain, %) ([1]; number of injection 3): 3.2 ± 0.6% | Accumulation of ascitic (weight gain, %) ([1]; number of injection 7): 10.2 ± 2.2% | Mean survival time ([1]; mice inoculated with Erlich adenocarcinoma cells): 16.2 ± 1.2

NCCSSCCNC(=O)CNC(=O)C(CSSCC(NC(=O)CCC(N)C(=O)O)C(=O)NCC(=O)O)NC(=O)CCC(N)C(=O)O (stereo not shown) [S-thioethylamine-GSSG in normal saline]
number of REF cells (M ± m) ([2]; 0 hours of incubation): 789 ± 21 × 10^3 cells | number of REF cells (M ± m) ([2]; 24 hours of incubation): 1422 ± 14 × 10^3 cells | number of REF cells (M ± m) ([2]; 48 hours of incubation): 2602 ± 43 × 10^3 cells | number of REF cells (M ± m) ([2]; 72 hours of incubation): 5112 ± 168 × 10^3 cells | number of clones of e-ras cells (M ± m) ([3]; 0 hours of incubation): 286 ± 14 | number of clones of e-ras cells (M ± m) ([3]; 24 hours of incubation): 202 ± 14 | number of clones of e-ras cells (M ± m) ([3]; 48 hours of incubation): 156 ± 10 | number of clones of e-ras cells (M ± m) ([3]; 72 hours of incubation): 112 ± 12 | number of REF cells after UV-irradiation (M ± m) ([4]; 0 hours): 789 ± 21 × 10^3 cells | number of REF cells after UV-irradiation (M ± m) ([4]; 24 hours): 422 ± 14 × 10^3 cells | number of REF cells after UV-irradiation (M ± m) ([4]; 48 hours): 260 ± 23 × 10^3 cells | number of REF cells after UV-irradiation (M ± m) ([4]; 72 hours): 212 ± 16 × 10^3 cells | number of clones of e-ras cells after UV-irradiation (M ± m) ([5]; 0 hours): 286 ± 14 | number of clones of e-ras cells after UV-irradiation (M ± m) ([5]; 24 hours): 182 ± 14 | number of clones of e-ras cells after UV-irradiation (M ± m) ([5]; 48 hours): 116 ± 8 | number of clones of e-ras cells after UV-irradiation (M ± m) ([5]; 72 hours): 82 ± 4

NCCSSCCNC(=O)CNC(=O)C(CSSCC(NC(=O)CCC(N)C(=O)O)C(=O)NCC(=O)O)NC(=O)CCC(N)C(=O)O (stereo not shown) [S-thioethylamine-GSSG, S-thioethylamine-glutathione disulfide]
apoptosis of normal cells (REF line) ([2]; 72-hr incubation): didn't promote apoptosis of normal cells | death of transformed e-ras cells ([3]; 72-hr incubation): induce a transformed cell death | UV-induced apoptosis of normal cells (REF line) [4]: do not promote the apoptosis of normal cells | death of transformed e-ras cells after UV-irradiation [5]: potentiate death of the transformed cells
